Reference: ChEMBL document CHEMBL3507680, “University of Dundee, Gates Library screen for HepG2 cell viability”

Experiment: Human HepG2 cell viability assay in 384 well format
Type: toxicity, cell-based
Parameters: dose 125 nL, time 70.5 hour; concentration not given beside the values
Conditions: HepG2 cells, read-out: Inhibition

In order of rising cytotoxicity at 70.5 h:
1. O=C(NCC1CCOC1)c1csc(-c2ccc(Cl)cc2)n1 (stereo not given)  -26.9%
2. Cc1ccc(N2CCC(CCN3CCCC3=O)CC2)nn1  -22%
3. O=C(CC1COCCN1S(=O)(=O)c1ccccc1)NCc1ccccn1 (stereo not given)  -15.7%
4. CCc1cc(NCCCOC2CCN(C)CC2)ncn1  -15.3%
5. Cc1ccc(-c2nc(C(=O)NCC3CCOC3)cs2)cc1 (stereo not given)  -15.2%
6. CCN(Cc1nc2c(cnn2C)c(=O)[nH]1)Cc1ccco1  -13.6%
7. CCc1nccn1C1CCCN(C(=O)c2ccc(-n3ccnc3)cc2)C1 (stereo not given)  -10.5%
8. Cc1cccnc1CC(C)N(C)C(=O)c1cccs1 (stereo not given)  -10.3%
9. O=C(NCc1cccnc1N1CCc2ccccc2C1)c1cnc[nH]1  -10.2%
10. CCn1cnnc1C1CCN(C(=O)c2ccc(Cl)cc2OC)CC1  -9.75%
11. O=C(C1CCCCO1)N1CCc2ncnc(NCc3ccon3)c2CC1 (stereo not given)  -9.14%
12. Nc1nc2c(c(N3CCC(CN4CCCC4=O)CC3)n1)CCNCC2  -8.27%
13. Cc1cccc(C)c1Oc1ncccc1CNC(=O)C1(C)CCCNC1 (stereo not given)  -7.62%
14. Cc1cnn(CC2CCCCN2Cc2ncc(C(C)(C)C)o2)c1 (stereo not given)  -7.03%
15. O=C(CCCc1cn[nH]c1)N1C[C@@H](CN2CCCC2)C[C@H](CO)C1  -6.82%
16. O=C(NCC1CCOC1)c1csc(-c2ccc(F)cc2)n1 (stereo not given)  -6.03%
17. Cc1ccc(CN(Cc2nc3c(cnn3C)c(=O)[nH]2)C2CC2)o1  -5.9%
18. CCc1nccn1C1CCCN(C(=O)c2ccc3c(c2)nnn3C)C1 (stereo not given)  -5.62%
19. CCn1ncnc1CN1CCC(CNC(=O)c2cccc(C)n2)C1 (stereo not given)  -5.47%
20. CCCN(CC)C(=O)c1cc(Cn2c(C)nc3ccccc32)[nH]n1  -4.58%
21. c1ccc(OCCCn2ccnc2-c2cn(C3CCNCC3)nn2)cc1  -4.27%
22. Cc1nc(C)n(CC2CCCN2Cc2ncc(C(C)(C)C)o2)n1 (stereo not given)  -4.1%
23. CC(=O)Nc1ccc(Oc2ccc(CN3CCCC3)cc2F)cc1  -3.88%
24. CCn1cc(CN2CCCN(C(=O)CCN3CCCC3=O)CC2)cn1  -3.66%
25. CC(C)c1cc(NC(=O)c2ccc([S+]([O-])C(C)C)cc2)[nH]n1 (stereo not given)  -3.24%
26. CCCOC(C)C(=O)N1CCC(O)(c2ccc3nc(C)ccc3c2)CC1 (stereo not given)  -3.14%
27. CCCN1CCc2[nH]cnc2C12CCN(C(=O)CCn1cccn1)CC2  -2.96%
28. CC[C@H](C)Cn1nc(C2CCNCC2)n(Cc2ccccc2)c1=O  -2.63%
29. COCc1nnc(C(=O)N2CCCC(O)C2)o1 (stereo not given)  -1.1%
30. CC(C)c1nn(C)c(N(C)C)c1CNC(C)c1ccccc1F (stereo not given)  -1.04%
31. OCCn1ncc2c1CN(CC1CCOc3ccccc3C1)C2 (stereo not given)  -0.723%
32. Cc1ccc(-c2noc(CN3CC(n4cc(C)cn4)C3)n2)cc1  -0.527%
33. CCc1noc(CN(CC)C(=O)CC2C(=O)NCCN2CC(C)(C)C)n1 (stereo not given)  0.786%
34. Cc1oc(C(=O)O)cc1S(=O)(=O)Nc1cc(Br)ccc1Cl  1.56%
35. CNc1nc(C(=O)NCc2cccnc2N(C)C)cs1  1.65%
36. CN(C)CCNc1cc(-c2ncccc2Cl)c2cc[nH]c2n1  1.89%
37. CC(C)c1cc(NC(=O)c2ccncc2)[nH]n1  2.62%
38. COc1ccc(OC)c(C2CCN(C3CCN(C(C)=O)CC3)C2)c1 (stereo not given)  2.82%
39. Cc1nc(C)c(Cn2ccnc2-c2cc(CN(C)C)cs2)s1  2.87%
40. Cn1cccc1-c1cc(C(=O)NCCc2nnc(N)s2)[nH]n1  4.96%
41. CN(C)C(Cn1ccnc1-c1ccccc1C(=O)O)c1ccccc1Cl (stereo not given)  10.5%
42. CCc1noc(CNc2ccc(C(=O)N3CCCC3)cc2C)n1  10.5%
43. CC1CCCN(Cc2ccc(OCc3nccn3C)cc2)C1 (stereo not given)  14.2%
44. N#Cc1cccc(N2CCOC3(CNCCOC3)C2)n1 (stereo not given)  15.5%
45. Cc1cc(C(=O)N2C[C@H]3CC[C@@H]2CN(Cc2ccccn2)C3)nc(N)n1  23.1%
